These results are taken from patent US7897602B2, “Indolinone compounds as kinase inhibitors” (Development Center for Biotechnology, priority 2009, dated 2011).

By inhibition is commonly meant the drop in the measured response relative to a control, in per cent.

What all share (type): biochemical
One test addresses T1, PDGFR-β kinase (Homo sapiens, UniProt P09619).
T1 construct: recombinant N-terminal 6×His-tagged PDGFR-β kinase domain construct expressed by baculovirus; 6xHis (N); made in house
As to the kind of experiment: PDGFR-β kinase assay (33P incorporation into Poly(Glu-Tyr)). The conditions noted are these: 500 nM test compound. In short, it runs like this: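 His-tagged PDGFR-β kinase domain (55 ng) with Poly(Glu-Tyr) 4:1, 30 μM ATP plus [33P]-γ-ATP, pH 7.0 MnCl2 buffer, and 500 nM compound for 30 min at 30° C. Filter-bound radioactivity counted; inhibition computed relative to DMSO control.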

Another test has as its target T2, Aurora A kinase (Homo sapiens, UniProt O14965).
T2 construct: purchased Upstate
T2 sequence (O14965 1-403): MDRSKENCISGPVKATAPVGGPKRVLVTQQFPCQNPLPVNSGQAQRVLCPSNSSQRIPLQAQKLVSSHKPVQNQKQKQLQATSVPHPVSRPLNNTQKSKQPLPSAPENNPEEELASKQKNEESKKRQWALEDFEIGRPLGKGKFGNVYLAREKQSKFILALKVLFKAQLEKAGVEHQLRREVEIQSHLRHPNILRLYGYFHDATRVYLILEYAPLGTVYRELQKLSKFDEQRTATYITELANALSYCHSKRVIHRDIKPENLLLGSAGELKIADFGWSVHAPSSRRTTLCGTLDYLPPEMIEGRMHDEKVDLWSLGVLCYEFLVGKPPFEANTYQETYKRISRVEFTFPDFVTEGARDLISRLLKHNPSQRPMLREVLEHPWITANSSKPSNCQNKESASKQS
As to the kind of experiment: Aurora A kinase assay ([γ-33P]ATP, CHOCKtide substrate). The conditions noted are these: 1.0 μM test compound. Summed up:
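Radiometric filter-binding format: 33P incorporation into CHOCKtide counted after acid stop and filtration. Reactions ran 30 min at 33 °C, Aurora A with 10 μM ATP, Aurora B with 40 μM ATP. IC50 taken as concentration giving half-maximal kinase inhibition.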

The target of a further test is T3, c-Met kinase (Homo sapiens, UniProt P08581).
T3 construct: recombinant N-terminal 6×His-tagged c-Met kinase domain construct expressed from baculovirus; 6xHis (N); made in house
Put plainly: c-Met kinase assay (33P incorporation into Poly(Glu-Tyr)). The following applies: 500 nM test compound. Summed up: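 Single-concentration test (500 nM compound) at 30° C for 30 min, pH 7.0 MOPS buffer with 100 μM ATP and [33P]-γ-ATP. Enzyme was baculovirus-expressed 6×His c-Met kinase domain (5 ng), substrate Poly(Glu-Tyr) 4:1. Inhibition percentage derived from filter-bound counts relative to DMSO control.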

T3 sequence (P08581 1078-1345 limits assumed): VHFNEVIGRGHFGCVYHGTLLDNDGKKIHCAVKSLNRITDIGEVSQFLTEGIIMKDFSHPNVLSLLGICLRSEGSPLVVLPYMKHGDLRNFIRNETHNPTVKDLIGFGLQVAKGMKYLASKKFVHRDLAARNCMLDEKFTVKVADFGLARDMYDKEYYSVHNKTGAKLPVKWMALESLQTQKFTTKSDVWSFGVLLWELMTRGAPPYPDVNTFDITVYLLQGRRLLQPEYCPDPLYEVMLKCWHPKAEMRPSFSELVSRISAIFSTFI
T1 sequence (P09619 600-962 limits assumed): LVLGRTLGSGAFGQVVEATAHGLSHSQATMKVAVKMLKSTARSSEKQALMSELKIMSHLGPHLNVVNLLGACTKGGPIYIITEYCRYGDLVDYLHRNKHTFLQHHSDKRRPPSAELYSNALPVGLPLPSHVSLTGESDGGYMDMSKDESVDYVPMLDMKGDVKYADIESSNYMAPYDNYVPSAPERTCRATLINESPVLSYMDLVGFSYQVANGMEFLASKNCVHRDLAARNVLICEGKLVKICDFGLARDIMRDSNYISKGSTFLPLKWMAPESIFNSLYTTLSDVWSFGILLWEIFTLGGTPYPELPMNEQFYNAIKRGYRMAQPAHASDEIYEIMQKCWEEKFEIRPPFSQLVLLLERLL

For `CCOC(=O)CCc1c(/C=C2\C(=O)Nc3ccc(NC(=O)c4ccc(OC)cc4)cc32)[nH]c2c1C(=O)CCC2` [DCB-70141, (Z)-ethyl 3-(2-((5-(4-methoxybenzamido)-2-oxoindolin-3-ylidene)methyl)-4-oxo-4,5,6,7-tetrahydro-1H-indol-3-yl)propanoate], the figures for the inhibition at 0.5 µM at PDGFR-β kinase and at c-Met kinase were 1.4% and -1.2%, respectively. Also, the inhibition at 1 µM against Aurora A kinase came to 9.8%.
Consider `COc1ccc(C(=O)Nc2ccc3c(c2)/C(=C/c2[nH]c4c(c2CCC(=O)O)C(=O)CCC4)C(=O)N3)cc1` [DCB-70143, (Z)-3-(2-((5-(4-methoxybenzamido)-2-oxoindolin-3-ylidene)methyl)-4-oxo-4,5,6,7-tetrahydro-1H-indol-3-yl)propanoic acid], for which the results for the inhibition at 0.5 µM at PDGFR-β kinase and against c-Met kinase were 1% and -8.2%, respectively. Also, the inhibition at 1 µM at Aurora A kinase is 31.8%.
As to `CN(c1cccc(Cl)c1)S(=O)(=O)c1ccc2c(c1)/C(=C/c1[nH]c3c(c1CCC(=O)O)C(=O)CCCC3)C(=O)N2` [DCB-70148, (Z)-3-(2-((5-(N-(3-chlorophenyl)-N-methylsulfamoyl)-2-oxoindolin-3-ylidene)methyl)-4-oxo-1,4,5,6,7,8-hexahydrocyclohepta[b]pyrrol-3-yl)propanoic acid], the inhibition at 0.5 µM against PDGFR-β kinase was 16.1%; against c-Met kinase, 74.9%. Also, the inhibition at 1 µM at Aurora A kinase was 80.7%.
Regarding `O=C(O)CCc1c(/C=C2\C(=O)Nc3ccc(S(=O)(=O)Nc4ccc(F)c(Cl)c4)cc32)[nH]c2c1C(=O)CCCC2` [DCB-70149, (Z)-3-(2-((5-(N-(3-chloro-4-fluorophenyl)sulfamoyl)-2-oxoindolin-3-ylidene)methyl)-4-oxo-1,4,5,6,7,8-hexahydrocyclohepta[b]pyrrol-3-yl)propanoic acid], the inhibition at 0.5 µM worked out at 10.8% on PDGFR-β kinase and 8.4% against c-Met kinase. Also, the inhibition at 1 µM on Aurora A kinase was determined as 77.5%.
